This passage reports IC50 results from patent publication US20170305857A1, “N-ACYLPIPERIDINE ETHER TROPOMYOSIN-RELATED KINASE INHIBITORS” (Pfizer Limited, priority 2014, published 2017).

One may read the IC50 as the concentration that inhibits the measured activity by half.

T1 sequence (P04629 441-796): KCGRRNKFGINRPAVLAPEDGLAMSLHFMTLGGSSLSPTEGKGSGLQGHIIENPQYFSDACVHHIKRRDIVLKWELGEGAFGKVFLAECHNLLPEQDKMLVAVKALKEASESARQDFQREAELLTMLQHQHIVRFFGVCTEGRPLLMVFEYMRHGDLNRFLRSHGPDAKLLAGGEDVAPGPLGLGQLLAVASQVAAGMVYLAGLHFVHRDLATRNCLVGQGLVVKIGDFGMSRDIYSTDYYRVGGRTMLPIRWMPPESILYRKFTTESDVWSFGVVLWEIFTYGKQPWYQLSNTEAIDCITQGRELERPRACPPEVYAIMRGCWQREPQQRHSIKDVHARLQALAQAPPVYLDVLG

This assay has as its target T1, recombinant His-tagged cytoplasmic domains of TRKA receptor (NTRK1, PV3144, aa 441-796) (Homo sapiens, UniProt P04629).
T1 construct: aa 441-796; His; purchased Invitrogen PV3144
Nature of the assay: Isolated TRK enzyme assay (HTRF KinEASE-TK, PV3144 TrkA enzyme assay). The format is biochemical. The settings on record: 4 nM enzyme, 40 uM ATP, 35 min, arithmetic mean where more than one reading. On the procedure: Isolated TRK Enzyme assays use the HTRF KinEASE-TK kit (Cisbio Cat #62TK0PEJ) with recombinant His-tagged cytoplasmic domains of TRKA receptor sourced from Invitrogen (see table below). This activity-assay measures the phosphorylation of tyrosine residues within a substrate from the HTRF kit which has been validated by Cisbio for a variety of tyrosine kinases including the TRK receptors.
0.5 mM stock solutions of test compounds are prepared and serially diluted in 100% DMSO. […] Greiner low volume black plates containing 0.2 ul of serially diluted compound, standard and HPE/ZPE are created using the Bravo nanolitre dispenser.
1× enzyme buffer is prepared from 5× Enzymatic Buffer from the Cisbio KinEASE TK kit using MilliQ water. The buffer is then supplemented with 10 mM MgCl and 2 mM DTT (both from Sigma).
Following this preactivation step, 5 ul/well of enzyme+ATP mix is added using a Multidrop Micro to the assay plate, spotted with 0.2 ul 100% DMSO compound. This is left for 20 mins at room temperature before adding 5 ul of 2 uM TK-substrate-Biotin (from the Cisbio kit) diluted in 1× enzyme buffer (1 uM FAC) using the Multidrop Micro. The reaction is incubated at room temperature for the optimized assay reaction time (see table).
After the Detection Reagent addition, plates are covered and incubated at room temperature for 60 minutes. […] Test compound data are expressed as percentage inhibition defined by HPE and ZPE values for each plate. Percentage inhibition in the presence of test compound is plotted against compound concentration on a log scale to determine an IC50 from the resultant sigmoid curve.
Where more than one reading was taken, the arithmetic mean is presented.
On the technique in general: Time-resolved FRET reads energy transfer from a long-lived donor to a nearby acceptor.
With `CS(=O)(=O)Cn1cc(-c2cc(C(N)=O)c(O[C@@H]3CCN(C(=O)Cc4ccc(OC5CC5)cc4)C[C@@H]3F)cn2)cn1` [Example 35, 5-{[(3S,4R)-1-{[4-(cyclopropyloxy)phenyl]acetyl}-3-fluoropiperidin-4-yl]oxy}-2-{1-[(methylsulfonyl)methyl]-1H-pyrazol-4-yl}pyridine-4-carboxamide], the IC50 is 7.7 nM. For the compound `NC(=O)c1cc(-c2c[nH]cn2)cnc1O[C@@H]1CCN(C(=O)Cc2ccc(OC(F)(F)F)cc2)C[C@@H]1F` [Example 81, 2-{[(3S,4R)-3-fluoro-1-{[4-(trifluoromethoxy)phenyl]acetyl}piperidin-4-yl]oxy}-5-(1H-imidazol-4-yl)pyridine-3-carboxamide], the half-inhibitory concentration (IC50) turned out to be 2.5 nM.

On to `NC(=O)c1cc(-c2cn[nH]c2)ccc1O[C@H]1CCN(C(=O)Cc2ccc(OC(F)(F)F)cc2)C[C@H]1F` [Example 5, 2-{[(3R,4S)-3-fluoro-1-{[4-(trifluoromethoxy)phenyl]acetyl}piperidin-4-yl]oxy}-5-(1H-pyrazol-4-yl)benzamide], for which the IC50 was 0.9 nM.

In the case of `CC(N)c1ccc(-c2cnc(OC3CCN(C(=O)Cc4ccc(OC(F)(F)F)cc4)CC3)c(C(N)=O)c2)cc1` (racemic) [Example 94, Racemic 5-[4-(1-aminoethyl)phenyl]-2-[(1-{[4-(trifluoromethoxy)phenyl]acetyl}piperidin-4-yl)oxy]pyridine-3-carboxamide], the half-maximal inhibitory concentration (IC50) was determined as 8.8 nM. As for `CC(C)(O)Cn1cc(-c2cnc(O[C@@H]3CCN(C(=O)Cc4ccc(OC5CC5)cn4)C[C@@H]3F)c(C(N)=O)c2)cn1` [Example 32, 2-{[(3S,4R)-1-{[5-(cyclopropyloxy)pyridin-2-yl]acetyl}-3-fluoropiperidin-4-yl]oxy}-5-[1-(2-hydroxy-2-methylpropyl)-1H-pyrazol-4-yl]pyridine-3-carboxamide], the figure is 7.2 nM; as for `NCc1ccc(-c2cnc(OC3CCN(C(=O)Cc4ccc(OC(F)(F)F)cc4)CC3)c(C(N)=O)c2)cc1` [Example 98, 5-[4-(aminomethyl)phenyl]-2-[(1-{[4-(trifluoromethoxy)phenyl]acetyl}piperidin-4-yl)oxy]pyridine-3-carboxamide], 10.5 nM.

Consider `NC(=O)c1cc(-c2cnn(C[C@H](O)CO)c2)ccc1OC1CCN(C(=O)Cc2ccc(OC(F)(F)F)cc2)CC1` [Example 119, 5-{1-[(2S)-2,3-dihydroxypropyl]-1H-pyrazol-4-yl}-2-[(1-{[4-(trifluoromethoxy)phenyl]acetyl}piperidin-4-yl)oxy]benzamide], for which the IC50 was 8 nM.

On to `CC(C)(O)Cn1cc(-c2ccc(O[C@H]3CCN(C(=O)Cc4ccc(OC5CC5)cn4)C[C@H]3F)c(C(N)=O)c2)cn1` (racemic) [Example 45], for which the IC50 came out at 1.8 nM. Regarding `NC(=O)c1cc(-c2cnn(CCO)c2)ccc1OC1CCN(C(=O)Cc2ccc(OC3CC3)cc2)CC1` [Example 130, 2-[(1-{[4-(cyclopropyloxy)phenyl]acetyl}piperidin-4-yl)oxy]-5-[1-(2-hydroxyethyl)-1H-pyrazol-4-yl]benzamide], the IC50 was 5.5 nM. `Cc1nc(-c2cnc(OC3CCN(C(=O)Cc4ccc(OC(F)(F)F)cc4)CC3)c(C(N)=O)c2)c[nH]1` [Example 139, 5-(2-methyl-1H-imidazol-4-yl)-2-[(1-{[4-(trifluoromethoxy)phenyl]acetyl}piperidin-4-yl)oxy]pyridine-3-carboxamide]: the IC50 is 10.7 nM. On to `CS(=O)(=O)Cn1cc(-c2cc(C(N)=O)c(O[C@@H]3CCN(C(=O)Cc4ccc(OC(F)(F)F)cc4)C[C@@H]3F)cn2)cn1` [Example 36, 5-{[(3S,4R)-3-fluoro-1-{[4-(trifluoromethoxy)phenyl]acetyl}piperidin-4-yl]oxy}-2-{1-[(methylsulfonyl)methyl]-1H-pyrazol-4-yl}pyridine-4-carboxamide], for which the half-maximal inhibitory concentration (IC50) worked out at 3.4 nM. In the case of `NC(=O)c1cc(-c2cn(C[C@H](O)CO)cn2)ccc1OC1CCN(C(=O)Cc2ccc(OC(F)(F)F)cc2)CC1` [Example 125] it was 6.6 nM; in that of `NC(=O)c1cc(-c2cscn2)cnc1OC1CCN(C(=O)Cc2ccc(OC(F)(F)F)cc2)CC1` [Example 180], 8.26 nM. As for `NC(=O)c1cc(-c2cn(C[C@@H](O)CO)cn2)ccc1OC1CCN(C(=O)Cc2ccc(OC(F)(F)F)cc2)CC1` [Example 126, 5-{1-[(2R)-2,3-dihydroxypropyl]-1H-imidazol-4-yl}-2-[(1-{[4-(trifluoromethoxy)phenyl]acetyl}piperidin-4-yl)oxy]benzamide], the figure is 2.9 nM; as for `NC(=O)c1cc(-c2c[nH]cn2)cnc1O[C@H]1CCN(C(=O)Cc2ccc(OC(F)(F)F)cc2)C[C@@H]1F` [Example 82, 2-{[(3S,4S)-3-fluoro-1-{[4-(trifluoromethoxy)phenyl]acetyl}piperidin-4-yl]oxy}-5-(1H-imidazol-4-yl)pyridine-3-carboxamide], 4.2 nM; as for `NC(=O)c1cc(-c2cn[nH]c2)cnc1O[C@H]1CCN(C(=O)Cc2ccc(OC(F)(F)F)cc2)C[C@H]1F` [Example 72, 2-{[(3R,4S)-3-fluoro-1-{[4-(trifluoromethoxy)phenyl]acetyl}piperidin-4-yl]oxy}-5-(1H-pyrazol-4-yl)pyridine-3-carboxamide], 1.3 nM. As for `Cn1cc(-c2ccc(OC3CCN(C(=O)Cc4ccc(OC(F)(F)F)c(Cl)c4)CC3)c(C(N)=O)c2)cn1` [Example 110, 2-[(1-{[3-chloro-4-(trifluoromethoxy)phenyl]acetyl}piperidin-4-yl)oxy]-5-(1-methyl-1H-pyrazol-4-yl)benzamide], the figure is 110 nM; as for `C[C@H](O)Cn1cc(-c2ccc(OC3CCN(C(=O)Cc4ccc(OC(F)(F)F)cc4)CC3)c(C(N)=O)c2)cn1` [Example 134], 2.5 nM.

On to `CS(=O)(=O)Cn1cc(-c2cnc(O[C@@H]3CCN(C(=O)Cc4ccc(OC(F)(F)F)cc4)C[C@@H]3F)c(C(N)=O)c2)cn1` [Example 55, 2-{[(3S,4R)-3-fluoro-1-{[4-(trifluoromethoxy)phenyl]acetyl}piperidin-4-yl]oxy}-5-{1-[(methylsulfonyl)methyl]-1H-pyrazol-4-yl}pyridine-3-carboxamide], for which the concentration for half-maximal inhibition (IC50) was 1.8 nM.

On to `COCc1ccc(-c2cnc(OC3CCN(C(=O)Cc4ccc(OC(F)(F)F)cc4)CC3)c(C(N)=O)c2)cc1` [Example 97, 5-[4-(methoxymethyl)phenyl]-2-[(1-{[4-(trifluoromethoxy)phenyl]acetyl}piperidin-4-yl)oxy]pyridine-3-carboxamide], for which the IC50 worked out at 7.4 nM. As for `Cn1cnc(-c2ccc(O[C@@H]3CCN(C(=O)Cc4ccc(OC(F)(F)F)cc4)C[C@@H]3F)c(C(N)=O)c2)c1` [Example 6, 2-{[(3S,4R)-3-fluoro-1-(2-(4-(trifluoromethoxy)phenyl)acetyl)piperidin-4-yl]oxy}-5-(1-methyl-1H-imidazol-4-yl)benzamide], the figure is 1.5 nM. In the case of `Cn1cc(-c2cnc(OC3CCN(C(=O)Cc4ccc(OC(F)(F)F)cc4)CC3)c(C(N)=O)c2)cn1` [Example 182, 5-(1-methyl-1H-pyrazol-4-yl)-2-[(1-{[4-(trifluoromethoxy)phenyl]acetyl}piperidin-4-yl)oxy]pyridine-3-carboxamide] it was 15.1 nM; in that of `Cn1cnc(-c2ccc(OC3CCN(C(=O)Cc4ccc(OC(F)(F)F)cc4)C4CC34)c(C(N)=O)c2)c1` (centres unmarked) [Example 159, 5-(1-methyl-1H-imidazol-4-yl)-2-[(2-{[4-(trifluoromethoxy)phenyl]acetyl}-2-azabicyclo[4.1.0]hept-5-yl)oxy]benzamide], 17.8 nM.
